Row | melting point [°C] | SMILES
1 | 228 to 230 | COc1cccc(CNC(=O)c2nc3cccc(OCCc4ccc(C(=O)O)cc4)c3c(=O)[nH]2)c1
2 | 85 | CCCCCCCCCCCCCCCCCC(=O)n1cc(F)c(=O)n(C(=O)c2ccccc2)c1=O
3 | 280 to 284 | O=P(Cc1ccc2ccccc2c1-c1c(CP(=O)(c2cccc(F)c2)c2cccc(F)c2)ccc2ccccc12)(c1cccc(F)c1)c1cccc(F)c1
4 | 224 to 229 | NCc1ccc2c(c1)ncn2-c1cccc(-c2ccccn2)c1
5 | 101 to 117 | CC(C)(C)OC(=O)c1cc(O[C@H]2CC[C@H](NC(=O)Nc3ccc(Cl)c(C(F)(F)F)c3)CC2)ccn1
6 | 111 to 113 | COc1cc(OC)cc(-c2ncn(-c3ccc(C(F)(F)F)cc3)c2-c2ccc(OC)c(O)c2)c1
7 | 69 to 71 | COC(=O)C(=O)c1cc(OC)c(OCCOc2ccc3ccccc3c2)c(OC)c1
8 | 221 to 223 | Oc1ccc2nc(-c3cccc4c(Br)c(O)ccc34)oc2c1
9 | 157 to 159 | Clc1ccccc1CSc1nc2cccc3c2n1CCC3
10 | 235 to 238 | CCOC(=O)C1=CC(=O)N=N1
11 | 193 to 194 | Cc1cnc2c(C#N)cnn2c1
12 | 54 to 56 | COc1cccc(CC2SCCCS2)c1
13 | 153 to 156 | COC(=O)c1ccccc1S(=O)(=O)NCC(=O)Nc1cc(C)on1
14 | 219 to 234 | CC(=O)Nc1ccc(S(=O)(=O)Nc2ccn(C3CCCCC3)c(=O)n2)cc1
15 | 135 to 137 | Nc1cccnc1Nc1ccccc1C(=O)c1cccc(F)c1
16 | 145 | COC1CC(n2cc(C=CBr)c(=O)[nH]c2=O)OC1CCl (centres undefined)
17 | 65 | Clc1ccc(OCC2CO2)c(OCc2ccccc2)c1Cl (centres undefined)
18 | 121 to 124 | CC(=O)O[C@H]1C[C@@H](n2ccc(N)nc2=O)[C@H](O)[C@@H]1O (racemic)
19 | 240 to 241 | COc1ccc2c(c1)S(=O)c1nccnc1N2 (centres undefined)
20 | 269 | CC(C)(CO)NS(=O)(=O)c1cccc(NC(=O)c2cnn3c(C(F)(F)F)cc(-c4ccc(Cl)c(Cl)c4)nc23)c1
21 | 127 to 130 | COc1ccc(-c2cc(CO)c(=O)n(Cc3ccc(F)cc3)n2)cc1F
22 | 70 to 71 | CCCCCCC(CCC(=O)O)CC(=O)O (centres undefined)
23 | 106 to 107 | CN1CCCN(c2ccc3nc4c(n3n2)CCCC4)CC1
24 | 229 to 230 | Cn1cc(C(=O)NCc2ccc(Cl)cc2)c(=O)c2cc(CO)oc21

Row | melting point [°C] | SMILES
25 | 106 to 107 | Cc1ccnc2c1C(=O)CC(c1ccc(F)cc1F)C2 (centres undefined)
26 | 224 | Cc1cc(-c2ccc(Cl)cc2)nc(-c2ccnc(-c3cccc(S(N)(=O)=O)c3)c2)n1
27 | 133 to 136 | CC(=O)N1CCc2ccc(SCc3ccccc3)c(N)c2C1
28 | 134 to 136 | O=S(=O)(Nc1cc(I)c(O)c2ccccc12)c1cccs1
29 | 44 to 47 | CCCc1nc2cnccc2s1
30 | 145 to 146 | FC(Br)C=Cc1ncn(C(c2ccccc2)(c2ccccc2)c2ccccc2)n1 (centres undefined)
31 | 146 to 148 | COCCOCc1c(CN(C)CC(O)c2ncccn2)sc2c(=O)c(C(=O)NCc3ccc(Cl)cc3)cn(C)c12 (centres undefined)
32 | 39 to 40 | CCCCCCCCCCCCCCCCOCC(CC(CCCCCCCCCCCCCC)C(=O)NCCO)OCc1ccccc1 (centres undefined)
33 | 68 to 71 | CN(C(=O)CCC#Cc1ccccn1)c1ccccc1
34 | 104 to 105 | CCCc1nc(-n2cccc2C(=O)C(F)(F)F)c(C#N)[nH]1
35 | 155 to 156 | CN(O)C(=O)CCc1cc(-c2ccc(Cl)cc2)n(-c2ccccc2)n1
36 | 181 to 183 | O=C1NCNC12CCCc1ccccc12 (centres undefined)
37 | 185 to 192 | CC(CC#CC(C)(C)O)C1=CCC2C3=CC=C4CC(O)CCC4(C)C3CCC12C (centres undefined)
38 | 188 to 190 | CSc1ccc(C(=O)c2cc(C)cc(CC(N)=O)c2N)cc1
39 | 181 | OC1CSC(Oc2ccc(-c3cccnc3F)nc2)C(O)C1O (centres undefined)
40 | 176 | Cc1cc(Cc2ccccc2)c(NC(=O)NCc2ccccc2)c(=O)n1CC(=O)O
41 | 102 to 104 | CC(=O)OCC1OC(Cl)C(N=[N+]=[N-])C(OC(C)=O)C1OC(C)=O (centres undefined)
42 | 104 | CCOC(=O)Cc1ccc(NC(=O)c2cc(Cl)ccc2OC)cc1
43 | 54 to 64 | COc1ccc2c(c1)C(=NN1CCOC1=O)CCO2
44 | 124 to 126 | CC1(C)N=C(Cl)c2cc(C#N)ccc2O1
45 | 187 to 189 | FC(F)(F)c1nnc2c3cc4c(cc3ccn12)OCO4
46 | 134 | COc1ccc(C2CCCN(C(=O)C(F)(F)F)C2)cc1NC(=O)NOCc1ccccc1 (centres undefined)
47 | > 320 | OCn1cc(-c2cc3nccnc3[nH]2)c2ccccc21
48 | 116 to 117 | COc1cc(-c2ncnc(Cl)c2Cl)c(F)cc1Cl

Row | melting point [°C] | SMILES
49 | < 70 | CC1(C)CCC(C)(C)c2cc(-c3cc(-c4ccc(C(=O)O)cc4)ccc3-c3cccc(O)c3)ccc21
50 | 173 | COc1cc2c(c3c1c(=O)c1cc4ccccc4cc1n3C)[C@H](OC(=O)N(C)C)[C@H](OC(=O)N(C)C)C(C)(C)O2
51 | 48 to 50 | CCCCCCCCCCCCCCCCCCOc1cc(OCCCOc2cccc(Br)c2)cc(N(CC(=O)OC)CC(=O)OC)c1
52 | 278 to 280 | CC1=C(C#N)C(c2cccc([N+](=O)[O-])c2)n2ccnc2N1 (centres undefined)
53 | 109 | Cc1ccc(S(=O)(=O)N2CCCC2c2ccccc2)cc1 (racemic)
54 | 78 to 82 | CN(C)c1ccc(C=CC(C=C(c2ccc(N(C)C)cc2)c2ccc(N(C)C)cc2)C=C(c2ccc(N(C)C)cc2)c2ccc(N(C)C)cc2)cc1
55 | 148 | CC1C(=O)N(c2ccc(O)cc2)C(=S)N1c1ccc(Oc2ccc(F)cc2)cc1 (centres undefined)
56 | 217 to 219 | COc1c(F)cc2c(O)c(C(=O)NCc3ccc(Cl)cc3)cnc2c1F
57 | 120 to 122 | COc1cccc(NC(=O)NCC2(c3ccccc3)CCCCC2)c1
58 | 72.5 to 73.5 | CN(C)c1ccc(C2OC(C)(C)N=C2c2ccccc2Cl)cc1 (centres undefined)
59 | 165 to 166 | CC1(C)C(=O)N(CCO)C(=O)N1CN1C(=O)N(CCO)C(=O)C1(C)C
60 | 130 to 133 | CCN(CC)CC(O)CNC(=O)c1c(OC(=O)c2ccccc2)c2ccccc2n1-c1ccccc1 (centres undefined)
61 | 139 to 143 | COc1cc2c(N3CCc4ccc(Cl)cc43)ncnc2c(OC)c1OC
62 | 198 | CC(=O)OC1CSC(Oc2cnccc2C(F)(F)F)C(OC(C)=O)C1OC(C)=O (centres undefined)
63 | 158 to 159 | O=C1N[C@H](Cc2ccc(C(F)(F)F)cc2)[C@H](c2ccccc2)O1 (racemic)
64 | 145 to 148 | O=c1[nH]c(NCCSCc2cccs2)ncc1Cc1cccnc1
65 | 180 to 182 | CC(=O)N1CCc2ccc(NS(=O)(=O)c3ccccc3)cc2C1
66 | 64 to 65 | Cc1nc(-n2c(C)ccc2C)nc(C)c1Br
67 | 168 to 169 | CC(C)N(O)C(=O)Nc1cccc(S(C)(=O)=O)c1
68 | 181 to 182 | CS(=O)(=O)c1ccc(-c2onc3c2-c2ccccc2CC3)cc1
69 | > 250 | CCOc1cc2c(Nc3cc(OC)c(Cl)cc3Cl)c(C#N)cnc2cc1Br
70 | 153 to 156 | CC(C)C[C@@H](CC=O)NC(=O)[C@H](Cc1c[nH]cn1)NC(=O)[C@H](Cc1cccc2ccccc12)NC(=O)OCc1ccccc1
71 | 176 to 178 | Cc1nc(N2CCN(CC3(C#N)C=CC=CC3)C2=O)sc1C(=O)NCc1ccccc1 (centres undefined)
72 | 136 to 138 | CC(=O)NC[C@H]1CN(c2ccc(N3CCC(Cc4nnn(C)n4)CC3)c(F)c2)C(=O)O1

Row | melting point [°C] | SMILES
73 | 201 | CN(C(=O)N[C@@H](Cc1ccc(NC(=O)c2c(Cl)cccc2Cl)cc1)C(=O)O)c1ccccc1C(=O)NCC1CCCCC1
74 | > 300 | O=C(O)C1=Cc2cc(F)cc(Br)c2OC1C(F)(F)F (centres undefined)
75 | 109 to 111 | O=C(Nc1ccc(-n2nc(C(F)(F)F)cc2C(F)(F)F)cc1)c1cc(F)c(F)cc1F
76 | 62 to 72 | Nc1cc(N2CCCNCC2)nc(N)n1
77 | 93 to 95 | CSC(=C[N+](=O)[O-])NCCN(C)Cc1ccc(Cl)nc1
78 | 114 to 121 | COC(=O)C(Oc1cc(O)ccc1C#N)c1ccccc1C (racemic)
79 | 198 to 199 | CC(C)c1cc2cc(O)ccc2c(Oc2ccc(/C=C/C(=O)O)cc2)c1-c1ccccc1
80 | 215 to 217 | COC(=O)c1nc(-c2ccc(Cl)c(OC)c2F)nc(O)c1Cl
81 | 297 | COc1ccc(-c2[nH]nc3c2C(=O)c2c(NC(=O)C4CCC4)cccc2-3)cc1
82 | 186 to 188 | CC(C)c1ccc2nc3ccc(C(=O)OCC#N)cn3c(=O)c2c1
83 | 170 to 176 | CCn1cc(-c2nnnn2C)c(=O)c2ccccc21
84 | 305 | Cc1nc(NC(=O)c2cnn3c(C(F)(F)F)cc(-c4ccc(Cl)cc4)nc23)sc1S(N)(=O)=O
85 | 128 to 130 | O=C(NCCO)c1cnc(C(F)(F)F)s1
86 | 187 to 189 | COCc1nc2nccnc2c(=O)[nH]1
87 | > 300 | CC(C)c1nc2ccn(Cc3ccccc3)c(=O)c2n1Cc1cccc(-c2ccc(C(=N)N)cc2)c1
88 | 247 to 248 | N#Cc1ccc(-c2cc(-c3ccc(C#N)cc3Cl)no2)cc1
89 | 164 | CCCCCCCCCCCCCCCCCc1cc(=O)[nH]c(NC(=N)Nc2ccccc2)n1
90 | 158 to 159 | Nc1ccc2c(c1)N(C(=O)CCCl)CC2
91 | 215 to 217 | O=Cc1ccc(OC(F)F)c2oc3ccncc3c12
92 | 72 to 74 | CCC(C)NC(=O)NCC=CCOc1cc(CN2CCCCC2)ccn1 (centres undefined)
93 | 175 to 178 | O=c1cc(-c2ccoc2)c2ccc(Sc3cccc(-c4ccccc4)n3)cc2o1
94 | 115 to 116 | COc1cccc(CCCCCCOc2ccc(C(=O)O)c(O)c2)c1OC
95 | 95 to 97 | COCn1c(-c2nccs2)cc2cccc(NS(=O)(=O)c3cccs3)c21
96 | 236 to 238 | O=C(O)COc1ccc2cc(-c3cnc(Cc4ccccc4)o3)ccc2c1

Row | SMILES | melting point [°C]
97 | CCCCOCC(O)CN1C(=O)NC(=O)C(CC)(c2ccccc2)C1=O (centres undefined) | 92
98 | NCCc1ccc(OCCC(=O)O)cc1 | 216
99 | Brc1ccc(-c2ccc(C=CC3COC4(CCCCC4)OO3)cc2)cc1 (centres undefined) | 118 to 120
